The term solubility denotes the dissolved amount per volume that the medium holds. Lower therefore signals a poorly soluble substance.

The data set in a line: Solubility assay (high throughput 96-well plate, pH 7.4 phosphate buffer). Type of data set: physicochemical. The conditions noted are these: aqueous buffer, thermodynamic from solid, shaken two days at room temperature, UV-UPLC. The method, then:
Solubility measurements were performed using a high throughput 96-well plate based assay. For this, 0.2 mg of sample compound was weighed and added to a sample plate in triplicate and 650 μL of pH 7.4 phosphate buffer was added. The sample plate was capped, allowed to shake on a plate shaker for two days at room temperature, and then centrifuged (2000 rpm, 10 minutes) to settle undissolved solids. Approximately 600 μL of the aqueous supernatant slurry from each sample plate was transferred to a filter plate mounted on top of a receiver plate. Vacuum was applied to collect the filtrate. Appropriate dilutions were made in 50/50 methanol/water and quantification for concentration was performed against known standards by UV-UPLC. Some preferred compounds of the invention have greater solubility than the parent compound (P), N,N′-[(2S)-2-hydroxybicyclo[2.2.2]octane-1,4-diyl]bis[2-(4-chloro-3-fluorophenoxy)acetamide].

Each structure is given as a SMILES string. Values after ≈ are worked out from the molar mass of the structure shown. Where a name gives a salt, the structure may show the parent alone.

`CC(=O)O[C@H]1CC2(NC(=O)COc3ccc(Cl)c(F)c3)CCC1(NC(=O)COc1ccc(Cl)c(F)c1)CC2` (single isomer, unassigned) [Compound 100] displayed a solubility at 2 days below 0.82 µM.

The compound `N[C@@H](CC(=O)O[C@H]1CC2(NC(=O)COc3ccc(Cl)c(F)c3)CCC1(NC(=O)COc1ccc(Cl)c(F)c1)CC2)C(=O)O` [Compound 102, (2S)-2-amino-4-({(2S)-1,4-bis[2-(4-chloro-3-fluorophenoxy)acetamido]bicyclo[2.2.2]octan-2-yl}oxy)-4-oxobutanoic acid] showed a solubility at 2 days of 59 µM (≈ 38 µg/mL).

In turn, `O=C(COc1ccc(Cl)c(F)c1)NC12CCC(NC(=O)COc3ccc(Cl)c(F)c3)(CC1)[C@@H](OC(=O)Cc1ccccc1OP(=O)(O)O)C2` [Compound 115] returned a solubility at 2 days of 936 µM (≈ 696 µg/mL).

For `CN(C(=O)O[C@H]1CC2(NC(=O)COc3ccc(Cl)c(F)c3)CCC1(NC(=O)COc1ccc(Cl)c(F)c1)CC2)c1ncccc1COP(=O)(O)O` [Compound 116, (2S)-1,4-bis[2-(4-chloro-3-fluorophenoxy)acetamido]bicyclo[2.2.2]octan-2-yl methyl{3-[(phosphonooxy)methyl]pyridin-2-yl}carbamate], the concentration in solution (solubility at 2 days) was 903 µM (≈ 698 µg/mL).

In the case of `O=C(COc1ccc(Cl)c(F)c1)NC12CCC(NC(=O)COc3ccc(Cl)c(F)c3)(CC1)[C@@H](OC(=O)NCCOP(=O)(O)O)C2` [Compound 117], the concentration in solution (solubility at 2 days) was 598 µM (≈ 416 µg/mL).

In turn, `O=C(COc1ccc(Cl)c(F)c1)NC12CCC(NC(=O)COc3ccc(Cl)c(F)c3)(CC1)[C@@H](OC(=O)CCCOP(=O)(O)O)C2` [Compound 120, (2S)-1,4-bis[2-(4-chloro-3-fluorophenoxy)acetamido]bicyclo[2.2.2]octan-2-yl 4-(phosphonooxy)butanoate] gave a solubility at 2 days of 812 µM (≈ 565 µg/mL).

Consider `O=C(COc1ccc(Cl)c(F)c1)NC12CCC(NC(=O)COc3ccc(Cl)c(F)c3)(CC1)[C@@H](OC(=O)OCCOP(=O)(O)O)C2` [Compound 121, (2S)-1,4-bis[2-(4-chloro-3-fluorophenoxy)acetamido]bicyclo[2.2.2]octan-2-yl 2-(phosphonooxy)ethyl carbonate], for which the solubility at 2 days was above 1000 µM.

Compound `CC(C)(COP(=O)(O)O)CC(=O)O[C@H]1CC2(NC(=O)COc3ccc(Cl)c(F)c3)CCC1(NC(=O)COc1ccc(Cl)c(F)c1)CC2` [Compound 122, (2S)-1,4-bis[2-(4-chloro-3-fluorophenoxy)acetamido]bicyclo[2.2.2]octan-2-yl 3,3-dimethyl-4-(phosphonooxy)butanoate] showed a solubility at 2 days of 317 µM (≈ 229 µg/mL).

In the case of `O=C(COc1ccc(Cl)c(F)c1)NC12CCC(NC(=O)COc3ccc(Cl)c(F)c3)(CC1)[C@@H](OS(=O)(=O)O)C2` [Compound 125, (2S)-1,4-bis[2-(4-chloro-3-fluorophenoxy)acetamido]bicyclo[2.2.2]octan-2-yl hydrogen sulfate], the solubility at 2 days turned out to be 152 µM.

`O=C(COc1ccc(Cl)c(F)c1)NC12CCC(NC(=O)COc3ccc(Cl)c(F)c3)(CC1)[C@@H](OC(=O)CCCCOP(=O)(O)O)C2` [Compound 127, (2S)-1,4-bis[2-(4-chloro-3-fluorophenoxy)acetamido]bicyclo[2.2.2]octan-2-yl 5-(phosphonooxy)pentanoate] registered a solubility at 2 days of 645 µM (≈ 458 µg/mL).

Compound `O=C(COc1ccc(Cl)c(F)c1)NC12CCC(NC(=O)COc3ccc(Cl)c(F)c3)(CC1)[C@@H](OCOP(=O)(O)O)C2` [Compound 131, ({(2S)-1,4-bis[2-(4-chloro-3-fluorophenoxy)acetamido]bicyclo[2.2.2]octan-2-yl}oxy)methyl dihydrogen phosphate] displayed a solubility at 2 days above 1000 µM.

The values above are taken from patent US11149043B2 (Calico Life Sciences LLC, priority 2018, dated 2021).
